Assay results as given in patent US6451734B1, “Substituted 3-benzylpyrazoles and their use as herbicides” (BASF Aktiengesellschaft, priority 1996, dated 2002).

What was measured:
Format in all cases: in vivo
[1] = effect on the plasma glucose and insulin level in diabetes mice; conditions: homocygotic diabetes mice, not fed for one night; by pharyngeal tube in 0.25% hydroxyethylcellulose; blood collected 2 and 4 hours after treatment
Text: The animals which were used in the experiments described below received, in addition to sufficient water, a standard feed (“Rat and Mouse Breeder and Grower Diet” supplied by Special Diets Services Ltd., UK). Effect of the active compounds according to the invention on the plasma glucose and insulin level The laboratory animals used were homocygotic diabetes mice (40—60 g, supplied by Harlan UK) which were initially not fed for one night and then separated into different groups. The active compounds were administered as a solution or suspension in 0.25% strength aqueous hydroxyethylcellulose (CELLOSIZE supplied by UCC) using a pharyngeal tube, namely at 5 ml/kg of body weight. 2 and 4 hours after the treatment, approximately 50 μl each of blood were collected from the tip of the tail in capillary tubes for the collection of blood containing lithium heparin (supplied by Sarstedt, “Microvette CB300LH”). Plasma samples (5 μl) were immediately tested for their glucose content. A further 10 μl were stored in an Eppendorf tube at (−70)° C. until the plasma glucose and insulin content were determined.

Solanum nigrum = assay: greenhouse experiment, post-emergence treatment (herbicidal activity); conditions: Solanum nigrum (black nightshade), 0.125 kg/ha of a.s.
Text: (§1) The herbicidal activity of the substituted 3-benzylpyrazoles I was demostrated by the following greenhouse experiments: The culture containers used were plastic flowerpots containing loamy soil with approximately 3.0% of humus as the substrate. The seeds of the test plants were sown separately for each species. For the post-emergence treatment, the test plants were first grown to a plant height of 3 to 15 cm, depending on the plant habit, and only then treated with the active ingredients which had been suspended or emulsified in water. The test plants for this purpose were either sown directly and grown in the same containers, or they were first grown separately as seedlings and transplanted into the test containers a few days prior to treatment. The rate of application for the post-emergence treatment was 0.125 kg/ha of a.s. (active substance). Depending on the species, the plants were kept at 10-25° C. or 20-35° C. The test period extended over 2 to 4 weeks. During this time, the plants were tended, and their response to the individual treatments was evaluated. Evaluation was carried out using a scale from 0 to 100. 100 means no emergence of the plants, or complete destruction of at least the aerial parts, and 0 means no damage, or normal course of growth. The plants used in the greenhouse experiments belonged to the following species: [table]

Amaranthus retroflexus = assay: as above; conditions: Amaranthus retroflexus (redroot pigweed), 0.125 kg/ha of a.s.
Text: as §1

Abutilon theophrasti = assay: as above; conditions: Abutilon theophrasti (velvet leaf), 0.125 kg/ha of a.s.
Text: as §1

Setaria viridis = assay: as above; conditions: Setaria viridis (green foxtail), 0.125 kg/ha of a.s.
Text: as §1

[2] = determination of glucose elimination via urine in CD1-mice
Method: The animals which were used in the experiments described below received, in addition to sufficient water, a standard feed (“Rat and Mouse Breeder and Grower Diet” supplied by Special Diets Services Ltd., UK). Determination of Glucose Elimination via Urine In this experiment, 4 groups of 5 CD1-mice each (20—25 g, supplied by Harlan, UK) were transferred into metabolism cages and initially acclimatized for 24 hours. By pharyngeal tube, animals were then administered 100 mg/kg of body weight of the active compound IIIc.1, dissolved or suspended in 0.25% strength aqueous hydroxyethylcellulose (CELLOSIZE supplied by UCC). For comparison, 0.25% strength aqueous Cellosize without active compound was administered to the other 10 mice. The urine was subsequently collected for 24 hours and its total volume was measured. In each case […] of urine were examined for their glucose content.

[3] = 10 CD1-mice, 100 mg/kg of body weight by pharyngeal tube, urine collected for 24 hours

Row | SMILES | plasma insulin level [1] | herbicidal activity (Solanum nigrum) | herbicidal activity (Amaranthus retroflexus) | herbicidal activity (Abutilon theophrasti) | herbicidal activity (Setaria viridis) | glucose concentration of the urine [2, 3] | total elimination of glucose [2, 3] | increase of the elimination of glucose (via urine) ([2]; CD1-mice, 100 mg/kg by pharyngeal tube, 24 hours, versus Cellosize without active compound)
1 | Cn1nc(Cc2cccc(Cl)c2Cl)c(Cl)c1OC(F)F [Ia.1, 4-Chloro-3-(2,3-dichlorobenzyl)-5-difluoromethoxy-1-methyl-1H-pyrazole] | substantially unchanged | very good | very good | very good | very good |  |  | 
2 | Cn1c(=O)cc(Cc2cccc(Cl)c2Cl)n1C(F)F [IIIc.1, 5-(2,3-Dichlorobenzyl)-1-difluoromethyl-1,2-dihydro-2-methyl-3H-pyrazol-3-one] | substantially unchanged |  |  |  |  | 17.62 mmol/L | 70.48 µmol | 52%
3 | Cn1nc(Cc2cccc(Cl)c2Cl)cc1OC(F)F [Ic.1, 3-(2,3-Dichlorobenzyl)-5-difluoromethoxy-1-methyl-1H-pyrazole] | substantially unchanged |  |  |  |  |  |  | 
